Our source for the ED50 and LD50 values is patent publication EP0170430A1, “Heterocyclic pharmaceutical compounds, preparation and use” (THE WELLCOME FOUNDATION LIMITED, priority 1984, dated 1986).

As a reminder, the ED50 is the midpoint of the dose-response relation. The low end stands for greater potency, the high end for weaker potency. The LD50 is the dose at which mortality reaches 50%.

Data set [1] relates to tetrabenazine induced sedation. The experiment in a line: Antitetrabenazine test (prevention of tetrabenazine induced sedation). The class given is in vivo. Particulars: Mus musculus; CD1 male mice; compound ip 30 min before tetrabenazine hydrochloride ip; exploratory behavior scored 30 min later; amount required to reverse the tetrabenazine effects in 50 percent of the animals. On the procedure: Prevention of tetrabenazine induced sedation was measured using a modification of the method of Vernier, et al., First Hahnemann Symposium on Psychosomatic Medicine, ed. Nodim and Moyer, pub. Lea and Febiger, Philadelphia, 1962.
Mice, three groups of 12 CD1 males each, were injected intraperitoneally (ip) with a solution of compound (IA) or compound (IB) or with a saline solution alone. Thirty minutes later each of the mice was injected (ip, 35 mg/kg) with a solution containing tetrabenazine hydrochloride. Thirty minutes after the injection of tetrabenazine each mouse was examined for its level of exploratory behavior which was scored on a modification of the arbitrary scale defined by Vernier, et. al. The results reported in Table as the ED50 values are the amounts of the test compounds required to reverse the tetrabenazine effects in 50 percent of the animals tested.

Data set [2] in a line: Acute toxicity (LD50). Particulars: in vivo, ip, in the mouse, calculated as the hydrochloride salt.

Molecules are shown by their SMILES. Counter-ions that a name gives are not always drawn.

Regarding `C[C@@H]1NC(C)(C)CO[C@@]1(O)c1ccccc1` (relative stereo) [IA, cis-3,5,5-Trimethyl-2-phenyl-2-morpholinol hydrochloride], in data set [1], the ED50 was 18 mg/kg. Further, in data set [2], the LD50 is roughly 160 mg/kg.

Turning to `C[C@@H]1NC(C)(C)CO[C@@]1(O)c1ccc(F)cc1` (relative stereo) [IB, cis-2-(4-Fluorophenyl)-3,5,5-trimethyl-2-morpholinol hydrochloride], in data set [1], the ED50 turned out to be 14 mg/kg. The LD50 in data set [2] was roughly 160 mg/kg.
